# US10786509B2, “Treatment and prevention of atherothrombosis by inhibition of bruton's tyrosine kinase (BTK)” (priority 2016, dated 2020)
# Values joined by “and” are separate entries in the source; they are usually repeats but may differ in a detail not shown here. Identical values can stand only once. Like-named read-outs stand apart in the source and are kept apart here.
# What was measured:
# [1] = system: platelet aggregation in blood; assay: Platelet aggregation in blood by multiple electrode aggregometry (MEA), static, inhibitor added in vitro; type: cell-based, human; conditions: for collagen-induced platelet aggregation / platelet aggregation stimulated by TRAP, ADP or AA: 2 μM; for collagen-induced platelet aggregation: compared with plaque-induced aggregation; for maximal suppression of plaque-induced platelet aggregation: ACP-196 at 1 μM, ONO/GS-4059 at 2 μM; for IC50: Homo sapiens, Platelet, 15 min pre-incubation, MEA
# Experimental: The first 3 ml of blood drawn into an empty syringe were discarded. Experiments were performed between 30 min and 4 h after venipuncture. […] (Bampalis V G. et al.
# [2] = system: platelet deposition onto plaque homogenate, plaque tissue sections or collagen; assay: Platelet aggregation and thrombus formation in flowing whole blood (parallel plate flow chamber), inhibitor added in vitro; type: cell-based, human; conditions: for final platelet aggregate formation onto collagen fibers: up to 2 μM, only delayed at highest concentrations
# [3] = system: platelet aggregation in blood; assay: Ex vivo static platelet aggregation (MEA) in two healthy volunteers after oral Imbruvica
# [4] = Blood counts, liver enzymes and tolerability in two healthy volunteers after oral Imbruvica
# [5] = system: platelet deposition onto plaque homogenate or collagen; assay: Ex vivo platelet thrombus formation under arterial flow in two healthy volunteers after oral Imbruvica; parameters: species or system human; conditions: shear rate 600/s
# Experimental: For experiments in flowing blood, glass cover slips (Menzel, 24×60 mm, #1.5) coated with collagen (20 μg/ml), plaque homogenates or plaque tissue sections were assembled into parallel plate flow chambers using sticky slides (0.1 Luer sticky slides, Ibidi®, Martinsried, Germany) which had been blocked before with human serum albumin (HSA; 4% in PBS).
# Fluorescence microscopy (excitation: 485/25 nm, emission: 528/38 nm) was performed for real time measurement of platelet adhesion and aggregate formation using a 10× air objective (NA 0.4) and a CoolSNAP HQ2 CCD camera (Photometrics, Tucson, USA).
# [6] = plaque 833 μg/ml, static, read-out: IC50 for inhibition of plaque-induced platelet aggregation
# [7] = plaque-induced platelet aggregation, static
# [8] = donor B, after 1 week 140 mg each other day
# [9] = donor A, 1 week after low dose Imbruvica (140 mg/d)
# [10] = donor A, 3 h after Imbruvica loading dose (3×140 mg)
# [11] = donor B, 1 week after low dose Imbruvica (140 mg each other day)
# [12] = donor B, 3 h after Imbruvica loading dose (3×140 mg)
smiles,measurement,setting,value
CC#CC(=O)N1CCC[C@H]1c1nc(-c2ccc(C(=O)Nc3ccccn3)cc2)c2c(N)nccn12 [acalabrutinib],collagen-induced platelet aggregation,[1]; static,equally well inhibited
same,"platelet aggregation stimulated by TRAP, ADP or AA",[1]; static,only marginally
same,maximal suppression of plaque-induced platelet aggregation,[1]; static,80%
same,IC50,[1]; [6],400 nM
same,concentration at which maximal suppression was reached,[1]; [7],1 µM
same,inhibition of platelet aggregation / thrombus formation onto plaque homogenate,"[2]; 2 μM, shear rate 600/s",96%
same,final platelet aggregate formation onto collagen fibers,[2]; shear rate 600/s,did not compromise
CC#CC(=O)N1CC[C@@H](n2c(=O)n(-c3ccc(Oc4ccccc4)cc3)c3c(N)ncnc32)C1.Cl [ONO/GS-4059],collagen-induced platelet aggregation,[1]; static,equally well inhibited
same,"platelet aggregation stimulated by TRAP, ADP or AA",[1]; static,only marginally
same,maximal suppression of plaque-induced platelet aggregation,[1]; static,82%
same,IC50,[1]; [6],1000 nM
same,concentration at which maximal suppression was reached,[1]; [7],2 µM
same,final platelet aggregate formation onto collagen fibers,[2]; shear rate 600/s,did not compromise
"C=CC(=O)N1CCC[C@@H](n2nc(-c3ccc(Oc4ccccc4)cc3)c3c(N)ncnc32)C1 [ibrutinib, 1-[(3R)-3-[4-Amino-3-(4-phenoxyphenyl)-1H-pyrazolo[3,4-d]pyrimidin-1-yl]piperidin-1-yl]prop-2-en-1-one]",inhibition of plaque-induced platelet aggregation at each day tested,"[3]; donor A, 140 mg/d during the week, blood taken 23 h or 3 h post dose",> 90%
same,inhibition of collagen-induced platelet aggregation,"[3]; donor A, 3 h after loading dose 3×140 mg",91%
same,inhibition of platelet aggregation induced by two plaque homogenate pools,"[3]; donor A, 3 h after loading dose 3×140 mg, one value per pool, listed as Imbruvica",94% and 93%
same,inhibition of platelet aggregation after collagen stimulation,"[3]; donor A, after 1 week 140 mg/d",91%
same,reduction of platelet aggregation stimulated by TRAP,"[3]; donor A, after 1 week 140 mg/d",70%
same,inhibition of platelet aggregation stimulated by two plaque homogenate pools,"[3]; donor A, after 1 week 140 mg/d, one value per pool, listed as Imbruvica",94% and 91%
same,reduction of platelet aggregation after collagen stimulation,"[3]; donor B, 3 h after loading dose 3×140 mg",58%
same,reduction of platelet aggregation after plaque stimulation (two pools),"[3]; donor B, 3 h after loading dose 3×140 mg, one value per pool, listed as Imbruvica",68% and 77%
same,inhibition of platelet aggregation after collagen stimulation,[3]; [8],82%
same,reduction of platelet aggregation stimulated by TRAP,[3]; [8],45%
same,inhibition of platelet aggregation stimulated by two plaque homogenate pools,"[3]; donor B, after 1 week 140 mg each other day, one value per pool, listed as Imbruvica",93% and 91%
same,"platelet aggregation induced by TRAP, ADP or AA","[3]; donors A and B, 3 h after loading dose 3×140 mg",barely inhibited
same,platelet aggregation induced by ADP or AA,"[3]; donors A and B, after 1 week low dose",barely inhibited
same,reduction of platelet aggregation stimulated by ADP,"[1]; 1 μM, ADP 5 μM, static",−13%
same,reduction of platelet aggregation stimulated by TRAP,"[1]; 1 μM, TRAP 5 μM, static",−31%
same,platelet aggregation upon stimulation with collagen,"[1]; 1 μM, collagen, static",almost completely inhibited
same,spontaneous minimal platelet aggregation in the absence of stimuli,"[1]; 1 μM, no stimulus",abolished
same,platelet aggregation upon stimulation with plaque,"[1]; 1 μM, plaque 833 μg/ml, static",almost completely inhibited
same,IC50,"[1]; collagen, static, read-out: IC50 for inhibition of collagen-stimulated platelet aggregation",120 ± 40 nM
same,IC50,[1]; [6],180 ± 50 nM
same,concentration at which maximal suppression was reached,"[1]; plaque- and collagen-stimulated platelet aggregation, static",0.5 µM
same,B-lymphocytes (measured by FACS),[4]; both donors,rather increased then decreased
same,HCT,[4]; [9],36.7
same,Hb,[4]; [9],13.0 g/dL
same,Lymphocytes,[4]; [9],2900 µL⁻¹
same,"Lymphocytes, %",[4]; [9],45.9%
same,Monocytes,[4]; [9],500 µL⁻¹
same,"Monocytes, %",[4]; [9],8.1%
same,Neutrophils,[4]; [9],2900 µL⁻¹
same,"Neutrophils, %",[4]; [9],46%
same,Platelets,[4]; [9],217000 µL⁻¹
same,Red blood cells,[4]; [9],4.22e+06 µL⁻¹
same,HCT,[4]; [10],36.8
same,Hb,[4]; [10],12.4 g/dL
same,Lymphocytes,[4]; [10],2600 µL⁻¹
same,"Lymphocytes, %",[4]; [10],44%
same,Monocytes,[4]; [10],300 µL⁻¹
same,"Monocytes, %",[4]; [10],5.8%
same,Neutrophils,[4]; [10],2900 µL⁻¹
same,"Neutrophils, %",[4]; [10],50.2%
same,Platelets,[4]; [10],247000 µL⁻¹
same,Red blood cells,[4]; [10],4.07e+06 µL⁻¹
same,HCT,[4]; [11],44
same,Hb,[4]; [11],16.1 g/dL
same,Lymphocytes,[4]; [11],2000 µL⁻¹
same,"Lymphocytes, %",[4]; [11],29.5%
same,Monocytes,[4]; [11],900 µL⁻¹
same,"Monocytes, %",[4]; [11],12.5%
same,Neutrophils,[4]; [11],3900 µL⁻¹
same,"Neutrophils, %",[4]; [11],58%
same,Platelets,[4]; [11],160000 µL⁻¹
same,Red blood cells,[4]; [11],4.91e+06 µL⁻¹
same,HCT,[4]; [12],47.8
same,Hb,[4]; [12],17.2 g/dL
same,Lymphocytes,[4]; [12],1700 µL⁻¹
same,"Lymphocytes, %",[4]; [12],27.0%
same,Monocytes,[4]; [12],700 µL⁻¹
same,"Monocytes, %",[4]; [12],10.7%
same,Neutrophils,[4]; [12],4000 µL⁻¹
same,"Neutrophils, %",[4]; [12],62.3%
same,Platelets,[4]; [12],188000 µL⁻¹
same,Red blood cells,[4]; [12],5.39e+06 µL⁻¹
same,liver enzymes,"[4]; loading dose or weekly low dose intake, two donors",not altered
same,platelet aggregation onto collagen,"[2]; 0.2 μM and 0.5 μM, high shear rate 1500/s",did not reduce
same,change of platelet thrombus formation onto plaque homogenate,"[2]; 0.2 μM, high shear rate 1500/s",−69±16%
same,change of collagen-induced platelet aggregation,"[2]; 0.2 μM, shear rate 600/s",+1±6%
same,change of platelet aggregation onto plaque homogenate,"[2]; 0.2 μM, shear rate 600/s",−43±27%
same,change of platelet aggregation onto plaque tissue,"[2]; 0.2 μM, shear rate 600/s",−33±23%
same,change of platelet thrombus formation onto plaque homogenate,"[2]; 0.5 μM, high shear rate 1500/s",−93±5%
same,change of collagen-induced platelet aggregation,"[2]; 0.5 μM, shear rate 600/s",+3±9%
same,change of platelet aggregation onto plaque homogenate,"[2]; 0.5 μM, shear rate 600/s",−84±8%
same,change of platelet aggregation onto plaque tissue,"[2]; 0.5 μM, shear rate 600/s",−44±30%
same,change of final platelet aggregate formation onto collagen fibers,"[2]; 1 μM, shear rate 600/s",+8±2%
same,change of platelet aggregation onto plaque homogenate,"[2]; 1 μM, shear rate 600/s",−98±1%
same,change of platelet thrombus formation onto plaque tissue,"[2]; 1 μM, shear rate 600/s",−76±16%
same,platelet adhesion onto plaque homogenate,"[2]; 1 μM, shear rate 600/s",preserving platelet adhesion
same,plaque-induced thrombus formation under arterial flow,[5]; after 1 week 140 mg/d (donor A) or 140 mg each other day (donor B),suppressed
same,plaque-induced thrombus formation under arterial flow,"[5]; both donors, 3 h after loading dose 3×140 mg",suppressed
